Experimental findings from patent publication US6485953B1, “Enzyme capable of hydorlyzing plaque, microorganism producing the same, and a composition comprising the same” (Lifenza Co. Ltd., priority 1999, dated 2002) are described below.

Test [1] deals with dextranase activity of DXAMase. The experiment in a line: Stability test: dextranase activity of DXAMase in presence of enzyme inhibitors and mouthwash chemicals. The test is classed as biochemical, Lipomyces starkeyi KSM 22. As for the experimental part: Dextranase activity is determined by measuring the amount of isomaltose produced by the reaction of an enzyme solution in a buffer solution containing 2% dextran for 15 min at 37° C. Dextranase 1 IU is defined as the amount of the enzyme that produces 1 μmol of isomaltose when reaction is carried out by using dextran as a substrate for 1 min at 37° C.
(§1) To test the stabilization of dextranase and amylase activities of DXAMase by chemicals comprising mouthwash solution, the enzyme activity was measured in the presence of the enzyme inhibitors and chemicals in the mouthwash solutions in Table 2. In 1 mL of each chemical solution, 5 IU of DXAMase was added and reacted for 5 min at 37° C. Reaction was further carried out by adding 2% dextran or starch of an equal volume.

For test [2], the system named is amylase activity of DXAMase. Briefly: Stability test: amylase activity of DXAMase in presence of enzyme inhibitors and mouthwash chemicals. The test is classed as biochemical, Lipomyces starkeyi KSM 22. On the procedure: Amylase activity is measured by reacting the enzyme solution in a buffer solution containing 2% starch for 15 min at 37° C.
as §1

The mark [3] stands for this setting: inhibitor concentration 10 mM, 5 IU DXAMase, 5 min at 37° C.

On to `[H]/N=C(\N/C(=N/[H])NCCCCCCNC(=N)NC(=N)Nc1ccc(Cl)cc1)Nc1ccc(Cl)cc1` [Chlorhexydine], for which the “effect on enzymatic activity of DXAMase (dextranase and amylase), in words” value in test [1] (5 IU DXAMase in 1 mL chemical solution, 5 min at 37° C.) was “did not decrease”. The “Relative activity (%) Dextranase” value is 98% in test [1] (inhibitor concentration 0.01%), 98% in test [1] (inhibitor concentration 0.02%), 97% in test [1] (inhibitor concentration 0.05%) and 93% in test [1] (inhibitor concentration 0.1%). The “Relative activity (%) Amylase” value in test [2] (inhibitor concentration 0.01%) is given as 98%; in test [2] (inhibitor concentration 0.02%) it was 97%; in test [2] (inhibitor concentration 0.05%), 97%; in test [2] (inhibitor concentration 0.1%), 96%.
On to `O=C(O)CN(CCN(CC(=O)O)CC(=O)O)CC(=O)O` [EDTA], for which the “Relative activity (%) Dextranase” value in test [1] (setting [3]) came to 100%. The “Relative activity (%) Amylase” value in test [2] (setting [3]) is given as 100%.
As for `CCO` [Ethanol], the “Relative activity (%) Dextranase” value was 99% in test [1] (inhibitor concentration 1%), 98% in test [1] (inhibitor concentration 5%), 98% in test [1] (inhibitor concentration 10%) and 97% in test [1] (inhibitor concentration 20%). Also, the “Relative activity (%) Amylase” value in test [2] (inhibitor concentration 1%) came to 100%; in test [2] (inhibitor concentration 5%) it was 98%; in test [2] (inhibitor concentration 10%), 97%; in test [2] (inhibitor concentration 20%) it was 97%.
Regarding `F` [Fluoride], the “Relative activity (%) Dextranase” value in test [1] (inhibitor concentration 0.05%) stood at 94%. Also, the “Relative activity (%) Amylase” value in test [2] (inhibitor concentration 0.05%) came to 91%.
`CC(O)CO` (centres unmarked) [Propylene glycol]: in test [1] (inhibitor concentration 1%), the “Relative activity (%) Dextranase” value is 100%. For the same compound, the “Relative activity (%) Amylase” value in test [2] (inhibitor concentration 1%) came out at 100%.
Regarding `CCCCCCCCCCCCOS(=O)(=O)[O-].[Na+]` [SDS], the “Relative activity (%) Dextranase” value in test [1] (inhibitor concentration 0.05%) came to 91%; in test [1] (inhibitor concentration 0.5%), 85%. Besides, the “Relative activity (%) Amylase” value in test [2] (inhibitor concentration 0.05%) stood at 92%; in test [2] (inhibitor concentration 0.5%) it was 68%.
Regarding `O=C([O-])c1ccccc1.[Na+]` [Sodium benzoate], the “Relative activity (%) Dextranase” value in test [1] (inhibitor concentration 1%) is recorded as 100%. In addition, the “Relative activity (%) Amylase” value in test [2] (inhibitor concentration 1%) was determined as 100%.
